{
  "source": "paper PMC10615883",
  "about": "(Angewandte Chemie (International ed. in English), 2023)",
  "molecular_target": "Aβ40 aggregates (amyloid beta) (Homo sapiens, UniProt P05067)",
  "sequence (P05067 672-711 limits assumed)": "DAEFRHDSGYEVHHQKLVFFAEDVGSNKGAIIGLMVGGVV",
  "experiment": "fluorescence titration with Aβ aggregates",
  "type": "binding",
  "data": [
    {"substance": "CRANAD-147", "values": [
      {"measurement": "Kd", "value": "2.89 ± 0.43", "unit": "µM"}
    ]}
  ]
}
